Reference: paper PMC9538944, “In vitro biotransformation assays using fish liver cells: Comparing rainbow trout and carp hepatocytes” (Frontiers in Toxicology, 2022)
Where “and” joins values, the source holds several entries; their conditions need not be identical. Equal entries are not always repeated. Where two headings read alike, the source gives them in different places.

Experiments:
[1] = In vivo bioconcentration test OECD TG 305, carp; design: species or system Cyprinus carpio; conditions: common carp (Cyprinus carpio); for concentration at 40 d: day 40 (depuration); for concentration at 44 d: day 44 (depuration)
Procedure: (§1) In vivo BCF values for MXC and BaP in carp and trout were determined in bioconcentration tests with both species in accordance to OECD TG 305 ([OECD, 2012]). The studies were approved by the State Agency for Nature, Environment and Consumer Protection (LANUV) North Rhine-Westphalia. The fish were exposed to a single concentration of both test items in a flow-through system for 35 days. No control groups were used. Dosing was performed by a solid-phase desorption system which was integrated in the fresh water supply allowing for a constant delivery of test concentrations to the fish chambers. The procedure of column generated concentrations was described in detail by [Schlechtriem et al. (2017)]. For the present study, two packed columns containing each 500 g Florisil® loaded with 200 mg of either MXC or BaP were used for each fish chamber. The uptake (exposure) phase of the study was followed by a 35 days depuration phase in uncontaminated water. The flow-through rate was maintained at 38.6 L/h for carp and 30.1 L/h for trout throughout the test. […] Additional 2-4 fish were sampled each, at the start and at the end of the exposure period, as well as at the end of the depuration period for lipid analysis. The total lipid content of the fish was measured individually by gravimetric analysis according to [Smedes (1999)].
(§2) Water samples (400 ml) were taken from the test chambers at least three times per week. Preparation for chemical analysis was performed by liquid-liquid extraction using n-hexane (10 ml) containing deuterated MXC (35 ng). The purified organic phase was subdivided into two equal parts and evaporated to dryness under a stream of nitrogen. One part of the residue was dissolved in 200 µL DCM for MXC analysis. The other part was mixed with 1 ml ACN: water (8:2, v/v) and subjected to BaP analysis. Whole fish samples were prepared for chemical analysis individually. After grinding the tissue with the addition of dry ice in a Thermomix™ 31 (Vorwerk), the finely powdered homogenate was lyophilized using an AdVantage freeze dryer (Ismatec). Aliquots of the dry samples (0.5 g) were spiked with deuterated internal standards (5 ng MXC-d6 and 0.2 ng BaP-d12) and extracted three times with acetone: DCM (1:1, v/v) (10 ml). The pooled extracts were then extracted with ultra-pure water (45 ml) and mixed with sodium chloride (5 g) to remove acetone and matrix. The organic phase was concentrated (0.5 ml) and dissolved in cyclohexane: DCM (1:1, v/v) (4.2 ml). This was subjected to gel permeation chromatography (GPC) (GILSON system equipped with pump 307, syringe pump 402, GX-271 liquid handler, 508 interface module, and Trilution® LC software; column i. d. 1.5 cm, material Bio-Beads S-X3, 200–400 mesh, Bio-Rad, flow rate 2 ml/min). Eluates containing MXC (26–31 min retention time) and BaP (32–38 min retention time) were evaporated to dryness and dissolved in hexane (1 ml) and toluol (50 µL), respectively. The collected MXC extracts were further concentrated by solid-phase extraction (SPE, Sep-Pak® Vac 12cc, 2 g, silica cartridges, Waters) using DCM: n-hexane (50:50, v/v) as eluent. Eluent and hexane were used to equilibrate and condition the column before sample loading and subsequent washing with DCM: n-hexane (30:70, v/v). The eluate containing MXC was dried down and reconstituted in toluol (0.5 ml).
(§3) MXC in the organic phase of samples from the in vitro incubations and in DCM extracts of water samples from the in vivo bioconcentration tests were analyzed by gas chromatography-mass spectrometry (GC-MS). The GC-MS system consisted of a HP5890 series II GC coupled to a HP5972 mass sensitive detector (Hewlett-Packard). Separations were performed on 5% phenyl polysilphenylene-siloxane capillary columns (BPX-5, 30 m length x 0.25 mm i. d, 0.25 µm df, SGE). […]

common carp = assay: In vivo bioconcentration test OECD TG 305, carp; design: species or system Cyprinus carpio; conditions: for Cf data, concentration measured in individual fish: BaP background corrected
Procedure: as §1, §2, §3

[2] = in vivo, Cf data, concentration measured in individual fish
[3] = in vivo, common carp, day 7 (uptake), read-out: Mean Cf
[4] = in vivo, common carp, day 14 (uptake), read-out: Mean Cf
[5] = in vivo, common carp, day 21 (uptake), read-out: Mean Cf
[6] = in vivo, common carp, day 28 (uptake), read-out: Mean Cf
[7] = in vivo, common carp, day 35 (end of uptake), read-out: Mean Cf
[8] = in vivo, common carp, read-out: Mean Cf
[9] = common carp (Cyprinus carpio), in vivo
[10] = in vivo, common carp, BaP background corrected, read-out: Cf data, concentration measured in individual fish

c1ccc2c(c1)cc1ccc3cccc4ccc2c1c34 [BaP, benzo[a]pyrene]
concentration at 7 d [1, 2]: 0.204 ng/g
concentration at 14 d [1, 2]: 0.168 ng/g
concentration at 21 d [1, 2]: 0.136 ng/g
concentration at 28 d [1, 2]: 0.13 ng/g
concentration at 35 d [1, 2]: 0.149 ng/g
concentration at 7 d [1, 3]: 0.216 ng/g
concentration at 14 d [1, 4]: 0.172 ng/g
concentration at 21 d [1, 5]: 0.154 ng/g
concentration at 28 d [1, 6]: 0.148 ng/g
concentration at 35 d [1, 7]: 0.153 ng/g
concentration at 40 d [1, 8]: 0.013 ng/g
concentration at 44 d [1, 8]: 0.002 ng/g
concentration at 14 d ([1]; whole fish, other: exposure via water in a flow-through system, common carp, day 14 (uptake), BaP background corrected, read-out: Cf data, concentration measured in individual fish): 0.141 ng/g
Cf,SS concentration in fish at steady-state (common carp; [9]): 0.157 µg/kg
kB, in vivo estimate Carp (common carp; [9]): 0.48 day⁻¹
kB, in vivo estimate, range of 95% probability (common carp; [9]): 0.16–1.4
kT depuration rate constant (common carp; [9]): 0.493 day⁻¹
kTG growth corrected depuration rate constant (common carp; [9]): 0.482 day⁻¹
BCFSSL lipid-normalized steady-state bioconcentration factor (common carp; common carp (Cyprinus carpio), in vivo, 35 d): 73 L/kg

COc1ccc(C(c2ccc(OC)cc2)C(Cl)(Cl)Cl)cc1 [MXC, methoxychlor]
concentration at 7 d ([1]; in vivo, common carp, day 7 (uptake), BaP background corrected, read-out: Cf data, concentration measured in individual fish): 12.8 ng/g
concentration at 7 d [1, 3]: 12.2 ng/g
concentration at 14 d ([1]; in vivo, common carp, day 14 (uptake), BaP background corrected, read-out: Cf data, concentration measured in individual fish): 11.4 ng/g
concentration at 14 d [1, 4]: 9.88 ng/g
concentration at 21 d ([1]; in vivo, common carp, day 21 (uptake), BaP background corrected, read-out: Cf data, concentration measured in individual fish): 9.16 ng/g
concentration at 21 d [1, 5]: 8.56 ng/g
concentration at 28 d ([1]; in vivo, common carp, day 28 (uptake), BaP background corrected, read-out: Cf data, concentration measured in individual fish): 7.02 ng/g
concentration at 28 d [1, 6]: 6.94 ng/g
concentration at 35 d ([1]; in vivo, common carp, day 35 (end of uptake), BaP background corrected, read-out: Cf data, concentration measured in individual fish): 8.35 ng/g
concentration at 35 d [1, 7]: 7.59 ng/g
concentration at 40 d [1, 10]: 3.02 ng/g
concentration at 40 d [1, 8]: 2.4 ng/g
concentration at 44 d [1, 10]: 0.819 ng/g
concentration at 44 d [1, 8]: 0.757 ng/g
Cf,SS concentration in fish at steady-state (common carp; common carp): 8.24 µg/kg
kT depuration rate constant (common carp; common carp): 0.255 day⁻¹
kTG growth corrected depuration rate constant (common carp; common carp): 0.244 day⁻¹
BCFSSL lipid-normalized steady-state bioconcentration factor (common carp; common carp, 5% lipid content): 621 L/kg
Cf data, concentration measured in individual fish (common carp; common carp, day 7 (uptake)): 11.7 µg/kg and 10.7 µg/kg and 13.8 µg/kg
Cf data, concentration measured in individual fish (common carp; common carp, day 14 (uptake)): 9.30 µg/kg and 10.0 µg/kg and 8.83 µg/kg
Cf data, concentration measured in individual fish (common carp; common carp, day 21 (uptake)): 9.96 µg/kg and 6.95 µg/kg and 8.16 µg/kg
Cf data, concentration measured in individual fish (common carp; common carp, day 28 (uptake)): 5.90 µg/kg and 7.85 µg/kg and 7.00 µg/kg
Cf data, concentration measured in individual fish (common carp; common carp, day 35 (end of uptake)): 7.32 µg/kg and 7.30 µg/kg and 7.40 µg/kg
Cf data, concentration measured in individual fish (common carp; common carp, day 40 (depuration)): 2.71 µg/kg and 1.73 µg/kg and 2.16 µg/kg
Cf data, concentration measured in individual fish (common carp; common carp, day 44 (depuration)): 0.719 µg/kg and 0.956 µg/kg and 0.535 µg/kg
